# Results published in patent US20140123342A1, “Regulation of Stomatal Apertures by Apyrases and Extracellular Nucleotides” (BOARD OF REGENTS, THE UNIVERSITY OF TEXAS SYSTEM, priority 2011, published 2014).
# Experiments:
# Type in all cases: cell-based, Arabidopsis thaliana
# [1] = tested on: stomata (guard cells) in whole leaves; assay: Stomatal aperture closure studies, whole leaves in the light
# Experimental: (§1) Stomatal Aperture Studies: Arabidopsis thaliana ecotypes Columbia (Col-0) and Wassilewskija (WS) were used as wild types in this study. Col-0, nia1nia2, atrbohD/F, R2-4A and WS plants were all grown on autoclaved Metro-Mix 200 soil at 22° C. under continuous light. The mutant seeds nia1nia2 nia2-5; CS 2356; Col-0 background) were obtained from Dr. N. M. Crawford (University of California at San Diego) and the mutant seeds atrbohD/F (Col-0 background) were obtained from Dr. J. M. Kwak (University of Maryland). The RNAi mutant apyrase line (R2-4A) is in WS background, so WS ecotype was used as the control wild type for these studies. Leaves from 2 to 3 week old Col-0 plants, or R2-4A and WS plants treated with 4 μM estradiol for 1 week after development of mature basal leaves were used for peel and whole leaf studies. Plants were placed in the dark and watered 24 h before an study. For opening studies, plants were used immediately after 24 h dark treatment and all treatments were done in the dark except for the light treated leaves or peels, thus the control stomata are dark controls. For closure studies, plants were placed in the light 3 h before an study to induce stomatal opening and all treatments were done in the light, thus the control stomata are light controls. For peel studies, epidermal peels were made from the underside of the leaf and treatments were applied to the peels for 1 h. For whole leaf studies, leaves were removed and treatments were applied for 2 h. For each treatment, about 3 or 4 peels collected from different leaves or 3 or 4 different leaves of at least two different plants were floated with the abaxial side up in petri dishes on 3 mL of Arabidopsis leaf buffer consisting of 10 mM KCl, 25 mM MES pH 6.15 (Melotto et al., 2006) and the chemical being tested. For whole leaf studies peels were collected after the treatment.
# (§2) For studies testing the effects of ATPγS, ADPγS, AMPS, RB2, and PPADS (Sigma, St. Louis, Mo., USA) 20 mM stocks were made by dissolving the compounds in de-ionized water. For studies testing the effects of apyrase inhibitors, 7.5 mg/mL of NGXT191 and of inhibitor #13 (Windsor et al., 2002) was dissolved in dimethyl sulfoxide (DMSO) and then applied at a dilution of […] for a final concentration of 0.1% DMSO. ABA (Sigma, St. Louis, Mo., USA) was dissolved in ethanol in 10 mM stocks and then applied at a dilution of 1:1000. The stocks were stored at −20° C. while not in use. The production of the anti-AtAPY1 antibodies used is described by Steinebrunner et al. (2003). The crude immune and pre-immune sera were purified using protein A-Sepharose following the protocol described by Martin (1982) with the slight modification that the buffers used were azide-free. The protein-A purified sera were both used at a 1:1000 dilution in leaf stomatal aperture studies. The concentration of the immune and pre-immune sera, determined by Bradford assay (Bio-Rad), was 10.2 μg/mL and 7.7 μg/mL, respectively.
# (§3) After treatment, photos of stomata were taken using a light microscope at 20×. Stomatal aperture width was measured using the image processing software ImageJ. Typically, photos were taken of 70 to 90 stomata per treatment of which only 50 stomata were measured for each treatment. For each treatment the ratio of closed stomata (width of 0) to open stomata was determined for all stomata imaged and this ratio was maintained in the 50 stomata that were measured for each treatment. Data shown uses apertures determined as width/length, however data in all studies also obtained as width only and generally width/length and width only data are in agreement with each other. Statistical significance of the measurements for the treatments was determined using the Student's t test in Microsoft Excel.
# [2] = tested on: stomata (guard cells) in whole leaves; assay: Stomatal aperture opening studies, whole leaves in the dark; settings: whole leaf studies (data not shown)
# Experimental: as §1
# as §2, with “The crude immune and pre-immune sera were purified using protein A-Sepharose following the protocol described by Martin (1982) with the slight modification that the buffers used were azide-free. The protein-A purified sera were both used at a 1:1000 dilution in leaf stomatal aperture studies.” left out
# as §3
# [3] = tested on: H2O2 in guard cells; assay: Detection and quantification of H2O2 (H2DCFDA fluorescence); settings: 200 μM, leaf epidermal tissue, after 30 min
# Experimental: (§4) Detection and Quantification of H2O2 and NO: Col-0 plants were grown on soil for 2 to 4 weeks under continuous light at 21° C. Plants were placed in the dark for 24 h to ensure closure and then transferred to the light for 1 h. After 1 h in the light, mature basal leaves were excised and blended in a Waring blender on the low setting for approximately 10 s to isolate epidermal tissues, and the tissues were placed in 3 mL of 30 mM KCl, 10 mM Mes-KOH, pH 6.16 buffer in light for 2 h (Pei et al., 2000; Murata et al., 2001). DAF-2 DA and H2DCFDA were dissolved in DMSO to produce 5 mM and 10 mM stock solutions, respectively, and these were stored at −20° C. in 30 μL, aliquots. Fifty μM H2DCFDA or 15 μM DAF-2 DA was added to the medium in the dark, and after 30 min, 10 μM ABA, 200 μM ATPγS, or buffer (ATP control) was also added to the medium in the dark for 30 min. Peels were then rinsed by decanting the treatment solution and adding 3 mL fresh leaf buffer to the peels. Peels were rinsed twice as described. A peel from each of the three treatments (ABA, ATPγS and buffer) were placed on the same microscope slide and observed sequentially. A second study was staggered 30 to 45 min after the first by loading the H2DCFDA or DAF-2 DA dye to new peels 30 to 45 min after the first round of dye was added. Confocal laser scanning microscopy (CLSM) was performed with a Leica SP2 AOBS confocal microscope (Leica Microsystems, Bannockburn, Ill., USA). Laser power was set at 15%, with an excitation of 488 nm and an emission of 525 nm. A series of 0.5 μm optical sections with average intensity projection along the z axis were collected and made into one 2D image with greater focal depth. All images were obtained with the same software scanning settings including detector gain and laser intensity settings.
# [4] = tested on: stomata of nia1nia2 mutant leaves; assay: Stomatal closing studies with whole leaves of nia1nia2 mutant; settings: 200 ATPγS
# Experimental: (§5) Stomatal Aperture Studies: Arabidopsis thaliana ecotypes Columbia (Col-0) and Wassilewskija (WS) were used as wild types in this study. Col-0, nia1nia2, atrbohD/F, R2-4A and WS plants were all grown on autoclaved Metro-Mix 200 soil at 22° C. under continuous light. The mutant seeds nia1nia2 nia2-5; CS 2356; Col-0 background) were obtained from Dr. N. M. Crawford (University of California at San Diego) and the mutant seeds atrbohD/F (Col-0 background) were obtained from Dr. J. M. Kwak (University of Maryland). The RNAi mutant apyrase line (R2-4A) is in WS background, so WS ecotype was used as the control wild type for these studies. […]
# as §3, with “Statistical significance of the measurements for the treatments was determined using the Student's t test in Microsoft Excel.” left out
# [5] = tested on: stomata (guard cells) in epidermal peels; assay: Stomatal aperture closure studies, epidermal peels in the light; settings: for effect on stomatal aperture: epidermal peels, light, 1 h
# Experimental: as §1, §2, §3
# [6] = tested on: stomata (guard cells) in epidermal peels; assay: Stomatal aperture opening studies, epidermal peels in the dark; settings: for effect on stomatal aperture: darkness, 1 h
# Experimental: as §1, §2, §3
# [7] = tested on: stomata of atrbohD/F mutant leaves; assay: Stomatal closing studies with whole leaves of atrbohD/F mutant; settings: 200 ATPγS
# Experimental: as §5
# as §3, with “Statistical significance of the measurements for the treatments was determined using the Student's t test in Microsoft Excel.” left out
# [8] = tested on: NO in guard cells; assay: Detection and quantification of NO (DAF-2 DA fluorescence); settings: 200 μM, leaf epidermal tissue, after 45 min
# Experimental: as §4
smiles,measurement,setting,value
Nc1ncnc2c1ncn2[C@@H]1O[C@H](COP(=O)(O)OP(=O)(O)OP(O)(O)=S)[C@@H](O)[C@H]1O [ATPγS],effect on stomatal aperture,"[1]; 200 μM, leaves, light, 2 h",induced stomatal closure
same,threshold for nucleotide-induced stomatal closure,"[1]; whole leaf studies, compared with peel studies (150 to 200 μM; not shown)",same threshold
same,threshold concentration for stomatal opening,[2],higher than 5 μM
same,increase in H2DCFDA fluorescence in guard cells,[3],3 fold
same,effect on stomatal aperture,[4],no effect on stomatal aperture
same,effect on stomatal aperture,[5]; 150 μM,no statistically significant effect
same,mean stomatal aperture after closure compared with ABA,[5]; 200 μM versus 10 μM ABA,statistically the same as the aperture induced by treatment with 10 μM ABA
same,effect on stomatal aperture,[5]; 200 μM,induced stomatal closure
same,effect on stomatal aperture,[5]; 250 μM,induced stomatal closure
same,effect on stomatal aperture,[6]; 5 μM,induced opening
same,effect on stomatal aperture,[6]; 15 μM,induced opening
same,mean stomatal aperture compared with light treatment,[6]; low concentrations (5 and 15 μM),smaller than the aperture induced by light treatment
same,effect on stomatal aperture,[7],no effect on stomatal aperture
same,increase in DAF-2 DA fluorescence in guard cells,[8],2.5 fold
